{"source": "patent US7279321B2", "about": "“Methods for increasing the resistance of a host cell to aromatic carboxylic acids” (priority 2003, dated 2007); for Growth in LB medium for 3 days at room temperature with pHBA: key: ++++ indicates full turbidity; +++ indicates moderate, but visually less than full turbidity; + indicates very slight turbidity; − indicates no turbidity", "assay_type_in_all_cases": "cell-based", "key": {"[1]": {"test_system": "E. coli strain DH5αE (parental)", "experiment": "zone of growth inhibition test on LB agar plates", "details": "disk with 90 μmol pHBA sodium salt, 24 hr at 37° C.", "protocol": "(§1) A zone of growth inhibition test was done using 0.1 ml of overnight cultures in LB medium plated onto LB agar plates using 2.5 ml LB soft agar."}, "[2]": {"test_system": "E. coli strain DPD2443 (yhcP::TN<Kan> of DH5αE)", "experiment": "zone of growth inhibition test on LB agar plates", "details": "disk with 90 μmol pHBA sodium salt, 24 hr at 37° C.", "protocol": "as §1"}, "[3]": {"test_system": "E. coli strain DPD2433 (yhcS−)", "experiment": "pHBA zone of growth inhibition on solidified Vogel-Bonner medium", "details": "sodium salt of pHBA 80 μmoles/disk, Vogel-Bonner with glucose", "quoted_text": "This was tested by measuring the size of the zone of growth inhibition and scoring the degree of growth within the zones resulting from the sodium salt of pHBA (80 μmoles/disk) on solidified Vogel-Bonner medium with glucose as the carbon source (Table 5)."}, "[4]": {"test_system": "E. coli strain DPD2444 (yhcP)", "experiment": "Growth in LB medium in the presence of pHBA, scored visually", "from_the_text": "Strain DPD1818 carries a to/C::miniTn10 mutation in the MG1655 background. It was constructed by transduction of E. coli MG1655 using P1clr100 Cm phage grown on E. coli strain DE112 (Van Dyk et al. Appl. Environ. Microbiol. 60:1414-1420 (1994)), which carries a tolC::miniTn10 mutation, and selection for tetracycline resistance. Strain DPD2444, described above, carries a yhcP::TN<Kan> mutation. Strain DP2446 carries both the tolC::miniTn10 and yhcP::TN<Kan>. This strain was constructed using by P1clr100Cm mediated transduction of DE112 with phage grown on strain DPD2443 and selection for kanamycin resistance. Each of these mutant strains was grown overnight in LB medium at 37° C. […] The final volume in the wells of a 96-well microplate was 100 μl and the final dilution of the inoculum was 1 to 1000. This microplate was covered and incubated at 37° C. for 7 hours and then incubated at room temperature for 3 days. The growth in each well was then scored visually."}}, "data": [{"smiles": "O=C(O)c1ccc(O)cc1", "note": "[pHBA, para-hydroxybenzoic acid]", "values": [{"measurement": "pHBA zone of growth inhibition, mm diameter", "setting": "[1]", "result": 9.0, "unit": "mm"}, {"measurement": "pHBA zone of growth inhibition, mm diameter", "setting": "[2]", "result": 13.0, "unit": "mm"}, {"measurement": "degree of growth within the pHBA zone of growth inhibition", "setting": "[3]", "result": "clear"}, {"measurement": "pHBA zone of growth inhibition, mm diameter", "setting": "[3]; average of two experiments", "result": 20.2, "unit": "mm"}, {"measurement": "Growth in LB medium for 3 days at room temperature with pHBA", "setting": "[4]; 25 mM pHBA sodium salt", "result": "++++"}, {"measurement": "Growth in LB medium for 3 days at room temperature with pHBA", "setting": "[4]; 50 mM pHBA sodium salt", "result": "++++"}, {"measurement": "Growth in LB medium for 3 days at room temperature with pHBA", "setting": "[4]; 100 mM pHBA sodium salt", "result": "−"}, {"measurement": "Growth in LB medium for 3 days at room temperature with pHBA", "setting": "[4]; 200 mM pHBA sodium salt", "result": "−"}]}]}
